Data from patent publication US10239843B2 (CANCER RESEARCH TECHNOLOGY LIMITED, priority 2014, dated 2019).

biological target: Human Full Length PARG (Homo sapiens (Human), UniProt Q86W56); test: PARG enzyme assay (TR-FRET); assay type: biochemical; settings: read-out: PARG Biochem IC50 Geomean
Sequence (Q86W56 whole entry): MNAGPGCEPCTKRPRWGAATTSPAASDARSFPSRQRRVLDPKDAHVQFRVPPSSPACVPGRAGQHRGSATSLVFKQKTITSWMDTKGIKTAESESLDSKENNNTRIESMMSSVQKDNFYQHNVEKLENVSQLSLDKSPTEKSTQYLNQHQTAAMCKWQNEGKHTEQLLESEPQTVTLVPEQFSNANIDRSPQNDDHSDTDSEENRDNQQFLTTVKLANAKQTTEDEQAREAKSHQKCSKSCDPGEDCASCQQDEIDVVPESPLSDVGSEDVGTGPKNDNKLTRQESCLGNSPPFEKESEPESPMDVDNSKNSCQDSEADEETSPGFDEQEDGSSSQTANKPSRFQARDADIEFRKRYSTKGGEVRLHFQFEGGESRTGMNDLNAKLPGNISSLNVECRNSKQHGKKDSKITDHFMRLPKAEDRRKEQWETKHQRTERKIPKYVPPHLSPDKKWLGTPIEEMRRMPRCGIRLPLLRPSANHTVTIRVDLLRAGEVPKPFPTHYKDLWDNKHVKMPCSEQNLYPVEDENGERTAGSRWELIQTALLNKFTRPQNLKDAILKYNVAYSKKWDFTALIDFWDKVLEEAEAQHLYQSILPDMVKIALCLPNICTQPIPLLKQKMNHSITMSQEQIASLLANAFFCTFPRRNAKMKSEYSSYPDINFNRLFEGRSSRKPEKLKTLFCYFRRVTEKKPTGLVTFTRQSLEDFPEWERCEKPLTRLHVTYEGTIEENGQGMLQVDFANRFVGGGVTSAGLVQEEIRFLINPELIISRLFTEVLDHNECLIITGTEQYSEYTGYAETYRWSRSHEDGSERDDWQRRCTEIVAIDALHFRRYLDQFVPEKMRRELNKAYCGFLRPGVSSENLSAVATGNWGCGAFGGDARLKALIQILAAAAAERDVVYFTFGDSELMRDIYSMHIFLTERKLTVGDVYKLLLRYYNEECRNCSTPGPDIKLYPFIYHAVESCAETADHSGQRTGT

SMILES	IC50
Cn1c(=O)c2cc(S(=O)(=O)NC3(C)CC3)ccc2n(Cc2c(F)cccc2F)c1=O [Eample 75]	0.714 µM
Cn1c(=O)c2cc(S(=O)(=O)NC3(C#N)CC3)ccc2n(C)c1=O [Example 3]	4.96 µM
CCn1c(=O)c2cc(S(=O)(=O)NC3(C#N)CC3)ccc2n(CC)c1=O [Example 5]	1.82 µM
CCn1c(=O)c2cc(S(=O)(=O)NC3(C)CC3)ccc2n(CC2CCCCC2)c1=O [Example 13]	3.1 µM
Cn1c(=O)n(Cc2cccnc2)c(=O)c2cc(S(=O)(=O)NC3(C)CC3)ccc21 [Example 30]	2.55 µM
Cn1c(=O)c2cc(S(=O)(=O)NC3(C)CC3)ccc2n(CC2CCOC2)c1=O (centres unmarked) [Example 37]	1.48 µM
Cn1c(=O)c2cc(S(=O)(=O)NC3(C)CC3)ccc2n(CC2CCCCO2)c1=O (centres unmarked) [Example 38]	1.55 µM
Cn1c(=O)c(=O)n(Cc2ccccc2)c2ccc(S(=O)(=O)NC3(C)CC3)cc21 [Example 40, 1-Benzyl-4-methyl-N-(1-methylcyclopropyl)-2,3-dioxo-quinoxaline-6-sulfonamide]	2.79 µM
Cn1c(=O)c2cc(S(=O)(=O)NC3(C)CC3)ccc2n(CC2(C)COC2)c1=O [Example 42]	2.45 µM
Cn1ccnc1Cn1c(=O)n(C)c(=O)c2cc(S(=O)(=O)NC3(C)CC3)ccc21 [Example 48]	0.75 µM
Cn1c(=O)c2cc(S(=O)(=O)NC3(C)CC3)ccc2n(CC2CCCO2)c1=O (centres unmarked) [Example 49]	2.42 µM
Cn1c(=O)n(Cc2ccncc2)c(=O)c2cc(S(=O)(=O)NC3(C)CC3)ccc21 [Example 53]	7.98 µM
Cc1ccccc1Cn1c(=O)n(C)c(=O)c2cc(S(=O)(=O)NC3(C)CC3)ccc21 [Example 56]	3.34 µM
Cc1cccc(Cn2c(=O)n(C)c(=O)c3cc(S(=O)(=O)NC4(C)CC4)ccc32)c1 [Example 57]	1.11 µM
Cc1ccc(Cn2c(=O)n(C)c(=O)c3cc(S(=O)(=O)NC4(C)CC4)ccc32)cc1 [Example 58]	1.57 µM
COc1ccccc1Cn1c(=O)n(C)c(=O)c2cc(S(=O)(=O)NC3(C)CC3)ccc21 [Example 59]	3.24 µM
Cn1c(=O)c2cc(S(=O)(=O)NC3(C)CC3)ccc2n(Cc2ccccc2Cl)c1=O [Example 62]	1.27 µM
Cn1c(=O)c2cc(S(=O)(=O)NC3(C)CC3)ccc2n(Cc2ccccc2F)c1=O [Example 65]	1.45 µM

Second part, the compound after the results:

IC50	SMILES
9.17 µM	CC1(NS(=O)(=O)c2ccc3[nH]c(=O)[nH]c(=O)c3c2)CC1 [Example 1]
4.74 µM	Cn1c(=O)c2cc(S(=O)(=O)NC3(C)CC3)ccc2n(C)c1=O [Example 2]
1.47 µM	CCn1c(=O)c2cc(S(=O)(=O)NC3(C)CC3)ccc2n(CC)c1=O [Example 4]
4.11 µM	CCn1c(=O)n(C)c(=O)c2cc(S(=O)(=O)NC3(C)CC3)ccc21 [Example 9]
1.57 µM	CCn1c(=O)c2cc(S(=O)(=O)NC3(C)CC3)ccc2n(CCOC)c1=O [Example 17]
4.65 µM	Cn1c(=O)n(CC2CC2)c(=O)c2cc(S(=O)(=O)NC3(C)CC3)ccc21 [Example 20]
6.93 µM	Cn1c(=O)c(=O)[nH]c2ccc(S(=O)(=O)NC3(C)CC3)cc21 [Example 21, 4-Methyl-N-(1-methylcyclopropyl)-2,3-dioxo-1H-quinoxaline-6-sulfonamide]
1.14 µM	Cn1c(=O)n(CC#N)c(=O)c2cc(S(=O)(=O)NC3(C)CC3)ccc21 [Example 31]
1.17 µM	Cn1c(=O)c2cc(S(=O)(=O)NC3(C)CC3)ccc2n(CCC2CC2)c1=O [Example 43]
2.97 µM	C#CCn1c(=O)c2cc(S(=O)(=O)NC3(C)CC3)ccc2n(C)c1=O [Example 47]
3.41 µM	Cn1c(=O)n(CC2CC2(F)F)c(=O)c2cc(S(=O)(=O)NC3(C)CC3)ccc21 (centres unmarked) [Example 50]
4.16 µM	Cc1nc2ccc(S(=O)(=O)NC3(C)CC3)cc2c(=O)n1C [Example 51]
6.96 µM	Cc1nc2ccc(S(=O)(=O)NC3(C)CC3)cc2c(=O)[nH]1 [Example 52]
2.42 µM	CC1(NS(=O)(=O)c2ccc3nc(C4CC4)[nH]c(=O)c3c2)CC1 [Example 54]
